Tested on: mucosa of the stomach
Assay: Anti-ulcer test by oral administration (hydrochloric acid/ethanol-induced stomach mucosa damage)
Assay type: in vivo, male rats of the Wistar strain
Conditions: 3 mg/kg orally in 0.5% CMC, 30 minutes before 150 M hydrochloric acid/60% ethanol; male Wistar rats, 8 per group; 1 hour after hydrochloric acid/ethanol
Method: To male rats of the Wistar strain (each group consisting of 8 rats) having a body weight of 160 to 180 g, which had been fasted for 24 hours, was orally administered 3 mg/kg of the compound of formula I in the form of a suspension in a 0.5% solution of carboxymethyl cellulose (CMC), and after 30 minutes, 1 ml/200 of […] hydrochloric acid/60% ethanol was orally administered to the rats. One hour after the administration of the hydrochloric acid/ethanol, the rats were subjected to laparotomy, and the length of the damaged part formed on the mucosa of the stomach was compared, as the mucosa damage coefficient, with that in the control group. Only the 0.5% solution of CMC not containing the compound of formula I was orally administered to the control group. The inhibition ratio was calculated according to the following formula: [formula] wherein A represents the value of the control group and B represents the value of the group to which the compound of formula I was administered.

Row | Structure (SMILES) | Inhibition Ratio (mucosa damage coefficient) [%]
1 | CCOC(=O)c1ccc(CSc2nnc(-c3cccnc3)s2)nc1 [Example 1, 2-[(5-Ethoxycarbonylpyridin-2-yl)methylthio]-5-(3-pyridyl)-1,3,4-thiadiazole] | 42.9
2 | CCOC(=O)c1ccc(C[S+]([O-])c2nnc(-c3cccnc3)s2)nc1 (centres unmarked) [Example 2, 2-[(5-Ethoxycarbonylpyridin-2-yl)methylsulfinyl]-5-(3-pyridyl)-1,3,4-thiadiazole] | 91.5

Source: patent US5106859A, “Certain 1,3,4-thiadiazole derivatives and anti-ulcer agent comprising said derivatives as active ingredient” (Tsumura & Co., priority 1988, dated 1992)
